The record followed here is paper PMC8067737, “Synthesis and Biological Evaluation of Coumarin-Linked 4-Anilinomethyl-1,2,3-Triazoles as Potent Inhibitors of Carbonic Anhydrases IX and XIII Involved in Tumorigenesis” (Metabolites, 2021).

One data set deals with hCA IX (Homo sapiens, UniProt Q16790). As to the kind of experiment: CA catalyzed CO2 hydration, stopped flow assay, hCA IX. Particulars: recombinant enzyme, stopped flow technique, mean from 3 different assays, errors ±5–10%.
In a further data set the target is hCA I (Homo sapiens, UniProt P00915). As to the kind of experiment: CA catalyzed CO2 hydration, stopped flow assay, hCA I.
Sequence of hCA I (P00915 whole entry): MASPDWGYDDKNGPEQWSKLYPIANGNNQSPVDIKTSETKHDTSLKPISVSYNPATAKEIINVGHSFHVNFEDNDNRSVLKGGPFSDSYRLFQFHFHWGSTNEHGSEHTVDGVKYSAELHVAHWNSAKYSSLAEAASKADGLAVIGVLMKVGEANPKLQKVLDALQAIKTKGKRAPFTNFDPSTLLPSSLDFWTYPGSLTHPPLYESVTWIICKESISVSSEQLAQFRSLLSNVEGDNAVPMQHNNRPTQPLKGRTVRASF
The next data set concerns the target hCA II (Homo sapiens, UniProt P00918). As to the kind of experiment: CA catalyzed CO2 hydration, stopped flow assay, hCA II.
The target of another data set is hCA XIII (Homo sapiens, UniProt Q8N1Q1). As to the kind of experiment: CA catalyzed CO2 hydration, stopped flow assay, hCA XIII. The note with it: Ki (nM) hCA XIII, recombinant enzyme; stopped flow technique; mean from 3 different assays, errors ±5–10%.
Sequence of hCA XIII (Q8N1Q1 whole entry): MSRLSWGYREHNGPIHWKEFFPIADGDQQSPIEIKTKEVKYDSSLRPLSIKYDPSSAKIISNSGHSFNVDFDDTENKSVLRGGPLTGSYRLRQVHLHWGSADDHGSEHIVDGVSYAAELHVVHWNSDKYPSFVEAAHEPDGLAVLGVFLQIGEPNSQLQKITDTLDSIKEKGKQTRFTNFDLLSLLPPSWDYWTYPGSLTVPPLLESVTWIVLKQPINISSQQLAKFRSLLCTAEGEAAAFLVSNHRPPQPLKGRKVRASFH

pKi: −log10 of the molar value. Like-named read-outs stand apart in the source and are kept apart here.

Text for hCA II: (§1) An SX.18V-R Applied Photophysics (Oxford, UK) stopped flow instrument has been used to assay the CA catalyzed CO2 hydration activity [26]. […] The inhibition constants were obtained by non-linear least squares methods using the Cheng-Prusoff equation, as reported earlier, and represent the mean from at least three different determinations.
Text for hCA IX: as §1
Text for hCA XIII: as §1

For orientation: Ki means the equilibrium dissociation constant of an inhibitor or competing ligand from its target. What is called melting point is the temperature of the solid-liquid transition. For orientation: pKi means the Ki on a negative log10 scale, so that one unit is a factor of ten. Read a high pKi as a low Ki. For the molecule `O=c1ccc2cc(-n3cc(CNc4ccc(F)cc4)nn3)ccc2o1` [Compound 6l, 6-(4-(((4-fluorophenyl)amino)methyl)-1H-1,2,3-triazol-1-yl)-2H-chromen-2-one], the melting point was 210 to 212 °C. The Ki at hCA IX (Ki (nM) hCA IX) was 86.1 nM. The molecule further showed a pKi at hCA I below 4.30. The molecule also showed a pKi at hCA II below 4.30. For the same molecule, the Ki at hCA XIII worked out at 840 nM.

The molecule `O=c1ccc2cc(-n3cc(CNc4cc(F)cc(F)c4)nn3)ccc2o1` [Compound 6s, 6-(4-(((3,5-difluorophenyl)amino)methyl)-1H-1,2,3-triazol-1-yl)-2H-chromen-2-one] yielded a melting point of 204 to 206 °C. Besides, the Ki on hCA IX (Ki (nM) hCA IX) turned out to be 90.9 nM. In addition, at hCA I, the pKi was below 4.30. The molecule also gave a pKi at hCA II below 4.30. Besides, the Ki at hCA XIII is 664 nM.

Molecule `CC(C)c1ccc(NCc2cn(-c3ccc4oc(=O)ccc4c3)nn2)cc1` [Compound 6f, 6-(4-(((4-isopropylphenyl)amino)methyl)-1H-1,2,3-triazol-1-yl)-2H-chromen-2-one] displayed a melting point of 152 to 155 °C. On hCA IX (Ki (nM) hCA IX), the Ki was found to be 45 nM. In addition, at hCA I, the pKi was below 4.30. On hCA II, this molecule had a pKi below 4.30. Besides, the Ki at hCA XIII came to 8150 nM.

Molecule `Cc1ccc(NCc2cn(-c3ccc4oc(=O)ccc4c3)nn2)cc1` [Compound 6a, 6-(4-((p-tolylamino)methyl)-1H-1,2,3-triazol-1-yl)-2H-chromen-2-one] had a melting point of 150 to 152 °C. In addition, at hCA IX (Ki (nM) hCA IX), the Ki was found to be 48.4 nM. For the same molecule, at hCA I, the pKi was below 4.30. At hCA II, the pKi was below 4.30. Also, the Ki on hCA XIII is 92.6 nM.

Molecule `O=c1ccc2cc(-n3cc(CNc4cccc([N+](=O)[O-])c4)nn3)ccc2o1` [Compound 6i, 6-(4-(((3-nitrophenyl)amino)methyl)-1H-1,2,3-triazol-1-yl)-2H-chromen-2-one] registered a melting point of 230 to 234 °C. Besides, the Ki on hCA IX (Ki (nM) hCA IX) was determined as 85.7 nM. This molecule also had a pKi at hCA I below 4.30. The pKi at hCA II was below 4.30. At hCA XIII, the Ki came to 896 nM.

Take `O=c1ccc2cc(-n3cc(CNc4ccccc4F)nn3)ccc2o1` [Compound 6t, 6-(4-(((2-fluorophenyl)amino)methyl)-1H-1,2,3-triazol-1-yl)-2H-chromen-2-one]: the melting point lay in the range of 230 to 232 °C. Moreover, the Ki at hCA IX (Ki (nM) hCA IX) worked out at 643 nM. Moreover, at hCA I, the pKi is below 4.30. This molecule also gave a pKi on hCA II below 4.30. The Ki on hCA XIII turned out to be 6030 nM.

Take `O=c1ccc2cc(-n3cc(CNc4ccc(Br)cc4)nn3)ccc2o1` [Compound 6e, 6-(4-(((4-bromophenyl)amino)methyl)-1H-1,2,3-triazol-1-yl)-2H-chromen-2-one]: the Ki on hCA IX (Ki (nM) hCA IX) was below 50 nM; at hCA IX (read-out: Ki (nM) hCA IX) it was 36.3 nM; on hCA XIII, 883 nM. The pKi on hCA I and on hCA II was below 4.30 each time.

Regarding `O=c1ccc2cc(-n3cc(CNc4ccccc4)nn3)ccc2o1` [Compound 6b, 6-(4-((phenylamino)methyl)-1H-1,2,3-triazol-1-yl)-2H-chromen-2-one], the melting point fell in the range of 159 to 161 °C. Also, the Ki on hCA IX (Ki (nM) hCA IX) was found to be 60.8 nM. Besides, the negative logarithm of the Ki (pKi) at hCA I was below 4.30. In addition, the pKi at hCA II was below 4.30. The Ki at hCA XIII stood at 90.1 nM.

As to `O=c1ccc2cc(-n3cc(CNc4cccc(Br)c4)nn3)ccc2o1` [Compound 6j, 6-(4-(((3-bromophenyl)amino)methyl)-1H-1,2,3-triazol-1-yl)-2H-chromen-2-one], the melting point lay in the range of 133 to 136 °C. The Ki on hCA IX (Ki (nM) hCA IX) came out at 305 nM. On hCA I, this molecule gave a pKi below 4.30. This molecule also gave a pKi on hCA II below 4.30. In addition, the Ki on hCA XIII was 91.8 nM.

For `COc1ccc(NCc2cn(-c3ccc4oc(=O)ccc4c3)nn2)cc1` [Compound 6c, 6-(4-(((4-methoxyphenyl)amino)methyl)-1H-1,2,3-triazol-1-yl)-2H-chromen-2-one], the melting point fell in the range of 140 to 142 °C. For the same molecule, the inhibition constant Ki on hCA IX (Ki (nM) hCA IX) turned out to be 73.3 nM. This molecule also showed a pKi on hCA I below 4.30. At hCA II, the pKi was below 4.30. Moreover, at hCA XIII, the Ki came out at 950 nM.

For the molecule `O=c1ccc2cc(-n3cc(CNc4cccc(Cl)c4)nn3)ccc2o1` [Compound 6o, 6-(4-(((3-chlorophenyl)amino)methyl)-1H-1,2,3-triazol-1-yl)-2H-chromen-2-one], the melting point is 134 to 137 °C. Further, at hCA IX (Ki (nM) hCA IX), the inhibition constant Ki came to 92.7 nM. The molecule further had a pKi on hCA I below 4.30. Moreover, at hCA II, the pKi is below 4.30. In addition, the Ki at hCA XIII came out at 95.4 nM.

`O=c1ccc2cc(-n3cc(CNc4ccccc4I)nn3)ccc2o1` [Compound 6p, 6-(4-(((2-iodophenyl)amino)methyl)-1H-1,2,3-triazol-1-yl)-2H-chromen-2-one] yielded a melting point of 165 to 167 °C. Also, on hCA IX (Ki (nM) hCA IX), the Ki came out at 574 nM. Besides, the pKi on hCA I is below 4.30. Also, the pKi at hCA II is below 4.30. Moreover, at hCA XIII, the inhibition constant (Ki) is 594 nM.

`Cc1cc(C)c(NCc2cn(-c3ccc4oc(=O)ccc4c3)nn2)c(C)c1` [Compound 6g, 6-(4-((mesitylamino)methyl)-1H-1,2,3-triazol-1-yl)-2H-chromen-2-one]: the melting point lay within 157 to 159 °C. At hCA IX (Ki (nM) hCA IX), the Ki is 64.8 nM. Besides, the pKi at hCA I was below 4.30. The molecule also showed a pKi on hCA II below 4.30. The Ki at hCA XIII was 903 nM.

Regarding `O=c1ccc2cc(-n3cc(CNc4ccc(Oc5ccccc5)cc4)nn3)ccc2o1` [Compound 6h, 6-(4-(((4-phenoxyphenyl)amino)methyl)-1H-1,2,3-triazol-1-yl)-2H-chromen-2-one], the melting point lay in the range of 172 to 174 °C. The Ki on hCA IX (Ki (nM) hCA IX) worked out at 73 nM. Further, the pKi on hCA I is below 4.30. For the same molecule, the pKi at hCA II is below 4.30. Also, the Ki on hCA XIII is 905 nM.

For the molecule `O=c1ccc2cc(-n3cc(CNc4ccc(Cl)cc4)nn3)ccc2o1` [Compound 6d, 6-(4-(((4-chlorophenyl)amino)methyl)-1H-1,2,3-triazol-1-yl)-2H-chromen-2-one], the melting point lay within 136 to 138 °C. In addition, the Ki on hCA IX (Ki (nM) hCA IX) turned out to be 152 nM. The molecule also gave a pKi on hCA I below 4.30. At hCA II, this molecule gave a pKi below 4.30. The inhibition constant (Ki) at hCA XIII came out at 898 nM.

`Cc1cccc(NCc2cn(-c3ccc4oc(=O)ccc4c3)nn2)c1C` [Compound 6r, 6-(4-(((2,3-dimethylphenyl)amino)methyl)-1H-1,2,3-triazol-1-yl)-2H-chromen-2-one] showed a melting point of 220 to 222 °C. The Ki on hCA IX (Ki (nM) hCA IX) amounted to 462 nM. The same molecule showed a pKi at hCA I below 4.30. On hCA II, this molecule had a pKi below 4.30. For the same molecule, at hCA XIII, the Ki was determined as 550 nM.

Take `Cc1cccc(NCc2cn(-c3ccc4oc(=O)ccc4c3)nn2)c1` [Compound 6m, 6-(4-((m-tolylamino)methyl)-1H-1,2,3-triazol-1-yl)-2H-chromen-2-one]: the melting point fell in the range of 220 to 223 °C. Besides, the Ki at hCA IX (Ki (nM) hCA IX) was determined as 80.1 nM. Moreover, the pKi at hCA I is below 4.30. This molecule also had a pKi on hCA II below 4.30. At hCA XIII, the Ki was determined as 795 nM.

Regarding `O=c1ccc2cc(-n3cc(CNc4cccc(C(F)(F)F)c4)nn3)ccc2o1` [Compound 6k], the melting point fell in the range of 246 to 248 °C. The Ki on hCA IX (Ki (nM) hCA IX) turned out to be 69.1 nM. This molecule also showed a pKi on hCA I below 4.30. Besides, the pKi on hCA II was below 4.30. At hCA XIII, the Ki was found to be 6430 nM.

Turning to `Cc1cc(C)cc(NCc2cn(-c3ccc4oc(=O)ccc4c3)nn2)c1` [Compound 6n, 6-(4-(((3,5-dimethylphenyl)amino)methyl)-1H-1,2,3-triazol-1-yl)-2H-chromen-2-one], the melting point fell in the range of 191 to 194 °C. For the same molecule, the Ki at hCA IX (Ki (nM) hCA IX) turned out to be 89.3 nM. Also, at hCA I, the pKi is below 4.30. The pKi on hCA II is below 4.30. Further, the Ki on hCA XIII was determined as 703 nM.

Consider `O=c1ccc2cc(-n3cc(CNc4ccc(Cl)cc4[N+](=O)[O-])nn3)ccc2o1` [Compound 6q, 6-(4-(((4-chloro-2-nitrophenyl)amino)methyl)-1H-1,2,3-triazol-1-yl)-2H-chromen-2-one], for which the melting point lay in the range of 213 to 215 °C. For the same molecule, the Ki at hCA IX (Ki (nM) hCA IX) was 96.4 nM. The molecule also showed a pKi at hCA I below 4.30. On hCA II, this molecule gave a pKi below 4.30. Moreover, the Ki on hCA XIII stood at 96.7 nM.
